Experimental data from US20150320709A1, “METHODS AND COMPOSITIONS FOR FACILITATING WEIGHT LOSS BY ADMINISTRATION OF THYROID HORMONES” (priority 2011, published 2015).

Key:
[1] = Body weight of weight loss program patients on thyroid hormone treatment; format: in vivo, human
Description: The first patient example is a person, 5′2″, weight 268 lbs, body mass index (BMI) 49 (nl 19-24; overweight 25-29; obesity≧30). Baseline blood pressure was 110/74, blood sugar (BS) was 153 mg/dL 10 days after their first visit. Their medical problems at baseline included obesity, type 2 diabetes mellitus (DM2), high blood pressure (HTN), fatigue, depression, and asthma. Their medications included glipizide 10 mg daily, amitriptyline 50 mg daily, metoprolol 50 mg daily, furosemide 40 mg daily, potassium chloride, lisinopril 10 mg daily, Advair Discus 500/50 twice daily (bid), and montelukast 10 mg daily. They were started on our comprehensive program. Five months after starting their weight loss treatment, they developed symptoms of hypothyroidism with constipation and fatigue. They had lost 28 lbs by this time and was having difficulty losing more weight even though they were eating less than they were before their weight loss treatment began. At the start of treatment, their FT4 was 0.9 ng/dL (nl 0.7-1.48). At the time of their low thyroid symptoms, their FT3 was 2.9 pg/mL (nl 1.71-3.71) and their FT4 was 0.91 ng/dL (nl 0.7-1.48). They were then treated with thyroid hormone (desiccated thyroid with a ratio of T4:T3 of about 4:1) at 60 mg daily for 6 days to acclimate, then increased to 120 mg daily. […] After two years on their weight loss treatment, their weight was 231 lbs. […]

[2] = Low thyroid symptoms / clinical status of weight loss program patients on thyroid hormone treatment; format: in vivo, human
Description: The first patient example is a person, 5′2″, weight 268 lbs, body mass index (BMI) 49 (nl 19-24; overweight 25-29; obesity≧30). Baseline blood pressure was 110/74, blood sugar (BS) was 153 mg/dL 10 days after their first visit. Their medical problems at baseline included obesity, type 2 diabetes mellitus (DM2), high blood pressure (HTN), fatigue, depression, and asthma. Their medications included glipizide 10 mg daily, amitriptyline 50 mg daily, metoprolol 50 mg daily, furosemide 40 mg daily, potassium chloride, lisinopril 10 mg daily, Advair Discus 500/50 twice daily (bid), and montelukast 10 mg daily. They were started on our comprehensive program. Five months after starting their weight loss treatment, they developed symptoms of hypothyroidism with constipation and fatigue. They had lost 28 lbs by this time and was having difficulty losing more weight even though they were eating less than they were before their weight loss treatment began. At the start of treatment, their FT4 was 0.9 ng/dL (nl 0.7-1.48). At the time of their low thyroid symptoms, their FT3 was 2.9 pg/mL (nl 1.71-3.71) and their FT4 was 0.91 ng/dL (nl 0.7-1.48). They were then treated with thyroid hormone (desiccated thyroid with a ratio of T4:T3 of about 4:1) at 60 mg daily for 6 days to acclimate, then increased to 120 mg daily. […] After two years on their weight loss treatment, their weight was 231 lbs. […] We tested for rT3 at this point. Their labs on the 150 mg dose of desiccated thyroid were: rT3 394 pg/mL (nl 90-350), FT3 3.94 pg/mL (nl 1.71-3.71), and FT4 1.24 ng/dL (nl 0.7-1.48). The task of bringing down their rT3 was then addressed. Over a period of a few months, their desiccated thyroid hormone was discontinued and instead the patient was given gradually increasing doses of T3 only, starting at 20 mcg daily and gradually increasing the T3 to 60 mcg bid. Five months after starting on T3 with increasing doses, their weight had dropped to 209 lbs. Their BP was 118/66 mmHg with pulse of 74 on lisinopril 10 mg daily, metoprolol 50 mg bid, and furosemide 40 mg daily. Instead of glipizide, they were taking metformin 500 mg bid. […] Their most recent labs on 60 mcg bid of T3 were FT3 3.8 pg/mL (nl 1.71-3.71), FT4 0.64 ng/dL (nl 0.7-1.48) and rT3 137 pg/mL (nl 90-350). Four months prior to this visit their BS was 125 mg/dl.
The second patient example is a person, 5′2″, weight 150 lbs, BMI 28 (nl 18.5-24.9; overweight 25-29.9; obesity≧30), with HTN. Their blood pressure was slightly elevated at 148/85 (on lisinopril 5 mg daily). Their medical problems at baseline included history of Hashimoto's thyroiditis, borderline high TSH, elevated lipids, and HTN. Their medications were lisinopril 5 mg daily, estradiol 2 mg daily, and rofecoxib 25 mg daily for osteoarthritis of their large joints. […]

[3] = Patient Example 2, T3 only, 25 mcg bid

For `N[C@@H](Cc1cc(I)c(Oc2ccc(O)c(I)c2)c(I)c1)C(=O)O` [T3, (2S)-2-amino-3-[4-(4-hydroxy-3-iodo-phenoxy)-3,5-diiodo-phenyl]propanoic acid], the weight ([1]; Patient Example 1, five months after starting T3 only, 20 mcg daily increasing to 60 mcg bid) was 209 lbs, the weight [1, 3] was 125 lbs and the clinical thyroid status ([2]; Patient Example 1, on T3 only) was “clinically euthyroid”. For the same molecule, the lipids [2, 3] was “improved compared to baseline” and the low thyroid symptoms [2, 3] was “no longer suffered from hair loss; their bowels were normal, they felt well”.
